Source: US20250230193A1, “CYCLIC COMPOUND HAVING SELECTIVE KRAS INHIBITORY EFFECT ON HRAS AND NRAS” (CHUGAI SEIYAKU KABUSHIKI KAISHA, priority 2022, published 2025)
Where a SMILES comes first, the peptide text is derived from it. Bridges are numbered along the chain shown (N, C = ends). [ ]: non-standard residue; d: D form. The star is where a group is joined. hPhe(3-Cl-4-CF3) = N[C@@H](CCc1ccc(C(F)(F)F)c(Cl)c1)C(=O)O; NEtPhe(4-Me) = CCN[C@@H](Cc1ccc(C)cc1)C(=O)O; NMeD = CN[C@@H](CC(=O)O)C(=O)O; NMeL = CN[C@@H](CC(C)C)C(=O)O; NMeV = CN[C@H](C(=O)O)C(C)C; Morpholide = C1CN(*)CCO1; Ac5c = NC1(C(=O)O)CCCC1; Sar = CNCC(=O)O

Columns and labels:
[1] = molecular target: GDP-bound NRAS wild-type protein (Homo sapiens, UniProt P01111); test: Binding to NRAS by surface plasmon resonance (SPR), Single Cycle Kinetics
GDP-bound NRAS wild-type protein, sequence (P01111 whole entry): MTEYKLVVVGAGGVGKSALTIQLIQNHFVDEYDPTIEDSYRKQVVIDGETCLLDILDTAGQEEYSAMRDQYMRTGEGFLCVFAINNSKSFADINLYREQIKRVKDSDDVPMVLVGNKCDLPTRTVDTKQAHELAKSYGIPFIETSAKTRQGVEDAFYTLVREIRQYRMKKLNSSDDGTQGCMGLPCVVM

[2] = molecular target: GDP-bound HRAS wild-type protein (Homo sapiens, UniProt P01112); test: Binding to HRAS by surface plasmon resonance (SPR), Single Cycle Kinetics
GDP-bound HRAS wild-type protein, sequence (P01112 whole entry): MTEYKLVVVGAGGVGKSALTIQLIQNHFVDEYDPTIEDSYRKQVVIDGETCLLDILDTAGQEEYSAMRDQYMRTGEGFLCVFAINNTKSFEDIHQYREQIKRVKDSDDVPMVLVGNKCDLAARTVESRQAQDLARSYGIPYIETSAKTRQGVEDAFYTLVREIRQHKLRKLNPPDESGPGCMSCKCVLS

[3] = GDP-bound NRAS wild-type vs GDP-bound KRAS wild-type, SPR
[4] = GDP-bound HRAS wild-type vs GDP-bound KRAS wild-type, SPR

Compound: CC[C@H](C)[C@@H]1NC(=O)[C@H](CC)N(C)C(=O)C[C@@H](C(=O)N(C)C)N(C)C(=O)[C@H](C2CCCC2)N(C)C(=O)C2(CCCC2)N(C)C(=O)[C@@H]2CCCN2C(=O)[C@H](CCc2cc(F)c(C(F)(F)F)c(F)c2)NC(=O)CN(C)C(=O)[C@H](Cc2ccc(C)cc2)N2CC/C=C\C[C@@H](C2=O)N(C)C(=O)[C@@H]2CCCN2C1=O [PP1811]
- NRAS/KRAS (ratio of KD value for NRAS to KD value for KRAS) [1, 3]: A (a compound having 10 or more and less than 20 is denoted as A)
- HRAS/KRAS (ratio of KD value for HRAS to KD value for KRAS) [2, 4]: B (a compound having 3 or more and less than 10 is denoted as B)

Compound: CCO[C@@H]1C[C@H]2C(=O)NC3(CCC3)C(=O)N(C)[C@@H](C3CCCC3)C(=O)N(C)[C@H](CC)CC(=O)N(C)[C@@H](CC)C(=O)N[C@@H]([C@@H](C)CC)C(=O)N(C)CC(=O)N(C)[C@H]3C/C=C\CCN(C3=O)[C@@H](Cc3ccc(C(F)(F)F)cc3)C(=O)N(C)CC(=O)N[C@@H](CCc3cc(F)c(C(F)(F)F)c(F)c3)C(=O)N2C1 [PP1625]
- NRAS/KRAS (ratio of KD value for NRAS to KD value for KRAS) [1, 3]: B (a compound having 3 or more and less than 10 is denoted as B)
- HRAS/KRAS (ratio of KD value for HRAS to KD value for KRAS) [2, 4]: B (a compound having 3 or more and less than 10 is denoted as B)

Compound: CC[C@H](C)[C@@H]1NC(=O)[C@H](CC(C)C)N(C)C(=O)C[C@@H](C(=O)N2CCOCC2)N(C)C(=O)[C@H](C(C)C)N(C)C(=O)C2(CCCC2)NC(=O)[C@@H]2CCCN2C(=O)[C@H](CCc2ccc(C(F)(F)F)c(Cl)c2)NC(=O)CN(C)C(=O)[C@H](Cc2ccc(C)cc2)N(CC)C(=O)CN(C)C(=O)CN(C)C1=O [PP0044] ([NMeL]I[Sar][Sar][NEtPhe(4-Me)][Sar][hPhe(3-Cl-4-CF3)]P[Ac5c][NMeV][NMeD]-Morpholide; lactam N-11)
- NRAS/KRAS (ratio of KD for GDP-bound NRAS wild-type to KD for KRAS) ([1]; KD ratio NRAS/KRAS, SPR): C (A compound having a KD ratio of 0.1 or more and less than 3 is denoted as C)
- HRAS/KRAS (ratio of KD for GDP-bound HRAS wild-type to KD for KRAS) ([2]; KD ratio HRAS/KRAS, SPR): C (A compound having a KD ratio of 0.1 or more and less than 3 is denoted as C)

Compound: CC[C@H](C)[C@@H]1NC(=O)[C@@H]2CCC/C=C/c3ccc(cc3)C[C@@H](C(=O)N(C)CC(=O)N[C@@H](CCc3ccc(Cl)c(Cl)c3)C(=O)N3CCC[C@H]3C(=O)NC3(CC(C)(C)C3)C(=O)N(C)[C@@H](C3CCCC3)C(=O)N(C)[C@H](C(=O)N3CCCC3)CC(=O)N2C)N2CC/C=C\C[C@@H](C2=O)N(C)C(=O)CN(C)C1=O [PP2602]
- NRAS/KRAS (ratio of KD value with respect to GDP-bound NRAS wild-type protein to KD value with respect to KRAS) ([1]; KD ratio NRAS/KRAS, class symbols): A (a compound having 10 or more and less than 20 is denoted as A)
- HRAS/KRAS (ratio of KD value with respect to GDP-bound HRAS wild-type protein to KD value with respect to KRAS) ([2]; KD ratio HRAS/KRAS, class symbols): A (a compound having 10 or more and less than 20 is denoted as A)

Compound: CCC[C@H]1C(=O)N[C@@H]([C@@H](C)CC)C(=O)N(C2CC2)CC(=O)N(C)[C@H]2C/C=C\CCN(C2=O)[C@@H](Cc2ccc(C(F)(F)F)cc2)C(=O)N(C)CC(=O)N[C@@H](CCc2cc(F)c(C(F)(F)F)c(F)c2)C(=O)N2C[C@H](OCC)C[C@H]2C(=O)NC2(CC(C)(C)C2)C(=O)N(C)[C@@H](C2CCCC2)C(=O)N(C)[C@H](C(=O)N(C)C)CC(=O)N1C [PP2101]
- NRAS/KRAS (ratio of KD value with respect to NRAS to KD value with respect to KRAS) ([1]; SPR, GDP-bound NRAS wild-type vs GDP-bound KRAS wild-type): A (a compound having 10 or more and less than 20 is denoted as A)
- HRAS/KRAS (ratio of KD value with respect to HRAS to KD value with respect to KRAS) ([2]; SPR, GDP-bound HRAS wild-type vs GDP-bound KRAS wild-type): B (a compound having 3 or more and less than 10 is denoted as B)

Compound: CCCN(C)C(=O)[C@@H]1CC(=O)N(C)[C@@H](CCOC)C(=O)N[C@@H]([C@@H](C)CC)C(=O)N(C)CC(=O)N(C)[C@H]2C/C=C\CCN(C2=O)[C@@H](Cc2ccc(C(F)(F)F)cc2)C(=O)N(C)CC(=O)N[C@@H](CCc2ccc(C(F)(F)F)c(OC)c2)C(=O)N2C[C@@H](C)C[C@H]2C(=O)NC2(CCC2)C(=O)N(C)[C@@H](C2CCCC2)C(=O)N1C [PP2029]
- NRAS/KRAS (ratio of KD value for NRAS to KD value for KRAS) [1, 3]: A (a compound having 10 or more and less than 20 is denoted as A)
- HRAS/KRAS (ratio of KD value for HRAS to KD value for KRAS) [2, 4]: B (a compound having 3 or more and less than 10 is denoted as B)

Compound: CCO[C@@H]1C[C@H]2C(=O)NC3(CCC3)C(=O)N(C)[C@@H](C3CCCC3)C(=O)N(C)[C@H](C(=O)N3CCOCC3)CC(=O)N(C)[C@@H](CC(C)C)C(=O)N[C@@H]([C@@H](C)CC)C(=O)N(C)CC(=O)N(C)[C@H]3CCCCN(C3=O)[C@@H](Cc3ccc(C(F)(F)F)cc3)C(=O)N(C)CC(=O)N[C@@H](CCc3cc(F)c(C(F)(F)F)c(F)c3)C(=O)N2C1 [PP0578]
- NRAS/KRAS (ratio of KD value with respect to GDP-bound NRAS wild-type protein to KD value with respect to KRAS) ([1]; KD ratio NRAS/KRAS, SPR): B (a compound having 3 or more and less than 10 is denoted as B)
- HRAS/KRAS (ratio of KD value with respect to GDP-bound HRAS wild-type protein to KD value with respect to KRAS) ([2]; KD ratio HRAS/KRAS, SPR): B (a compound having 3 or more and less than 10 is denoted as B)
